According to US6399672B1, “Oil soluble metal-containing compounds, compositions and methods” (Sartomer Technologies Co., Inc., priority 1999, dated 2002):

Assay: Solubility of Zn salts in organic compounds
Conditions: mixed with organic monomers listed per example in b131-b162 (glycol di(meth)acrylates, trimethylolpropane triacrylate etc.)
Excerpt: The organic compounds tested with the products of each of the preceding examples were as follows: […]

## zinc dimethacrylate
  solubility in organic compounds: insoluble
